Usually IC50 stands for the midpoint of a concentration-inhibition curve.

One assay concerns the target T1, human ME2 (Homo sapiens, UniProt P23368).
T1 construct: made in house; host or cells: Escherichia coli BL21
Kind of assay: ME2 inhibition test. It counts as biochemical. The conditions noted are these: for IC50: Table 1, 40 mM L-malate, 2 mM NAD+, 10 mM MgCl2, read-out: IC50 with respect to ME2; for inhibiting the activity of ME2 (in words): summary of Table 1.

For assay [1], the system named is H1299 cells. Kind of assay: Pyruvate and NADPH content of treated cells. It counts as cell-based, human. The conditions noted are these: 25 μM, 48 hours, 20 mM L-malate. On the procedure: (§1) H1299 cells (3×10^5 cells) were cultured for 24 hours in separate culture media each containing 20 mM L-malate, with the culture environment being at 37° C. and containing 5% carbon dioxide. […]. After that, the cultured cells in each group were collected and were centrifuged in 100 μL of phosphate buffer, and the supernatants were collected. Once the proteins in the supernatants were removed, a pyruvate colorimetric/fluorometric assay kit and a PicoProbe™ NADPH quantification fluorometric assay kit were used to analyze the pyruvate content and NADPH content of the cells respectively (Ex/Em: at 535 nm and 587 nm). […]

The test system of assay [2] is MCF-7 cells. In words: Pyruvate and NADPH content of treated cells. In kind it is cell-based, human. The conditions noted are these: 25 μM, 48 hours. The procedure:
as §1
In addition, MCF-7 cells (6×10^5 cells) were cultured in the same way as the H1299 cells and had their pyruvate content and NADPH content analyzed.

Assay [3] relates to H1299 cells. Kind of assay: ATP and ROS content of treated cells. In kind it is cell-based, human. The conditions noted are these: 150 μM, 48 hours. On the procedure:
H1299 cells (3×10^5 cells) were cultured in separate culture media each containing 20 mM L-malate. […]. Also, a ROS assay kit (#cat.MAK143, Sigma-Aldrich, St. Louis, MO, USA) was used to analyze the ROS contents of the cells, and the results are shown in FIG. 8. […]

The subject of assay [4] is H1299 cells. In words: Seahorse XF cell mito stress test (oxygen consumption rate). It counts as cell-based, human. The conditions noted are these: 75 and 150 μM, 3 hours.
Experimental: (§5) Finally, a Seahorse XFe24 analyzer was used to perform a Seahorse XF cell mito stress test on the cells to obtain the oxygen consumption rates (OCR) of the cells, and the test results are shown in FIG. 9 to FIG. 18. The control groups were formed by cells to which no EA or MDSA was added.
Assay [5] has as its system MCF-7 cells. The assay is described as above. It counts as cell-based, human.
Experimental: as §5
The test system of assay [6] is H1299 cells. In words: Cell invasion assay (Transwell/Matrigel). In kind it is cell-based, human. The conditions noted are these: 150 μM, 24 hours. The procedure:
(§2) […]. A culture medium containing 10% fetal bovine serum was subsequently added to the lower chambers. […] The vehicle groups, which were formed by cells to which no EA or MDSA was added, were provided to enable the calculation of the amount of the cells in each EA or MDSA-treated group in relation to the amount of the cells in the corresponding vehicle group at the end of the assay so that changes in the relative amounts of cells can be observed with ease.

Assay [7] concerns MCF-7 cells. In words: Cell invasion assay (Transwell/Matrigel). In kind it is cell-based, human. The conditions noted are these: 150 μM, 24 hours. On the procedure:
as §2

A further assay concerns THP-1 cells. Kind of assay: Animal test, ASID mice transplanted with THP-1 cells. It counts as in vivo. The conditions noted are these: 4 mg/kg, intravenous, day 21. The procedure:
(§3) A plurality of 8-week-old ASID mice (or mice with advanced severe immunodeficiency, or more specifically NOD.Cg-Prkde^scidIl2rg^tm1Wjl/YckNarl mice) were randomly divided into 6 groups. Each group of mice was intravenously injected with one of a plurality of differently treated AML cell variants at a frequency of 5 days per week for 4 weeks. The AML cell variants injected into the 6 groups of mice are as follows: • Group 1-1: THP-1 cells • Group 2-1: THP-1 cells with EA (at a dosage of 4 mg/kg) • Group 3-1: THP-1 cells with Na2EA (at a dosage of 4 mg/kg) • Group 1-2: MV4-11 cells • Group 2-2: MV4-11 cells with EA (at a dosage of 4 mg/kg) • Group 3-2: MV4-11 cells with Na2EA (at a dosage of 4 mg/kg)
(§4) On the 21st day of the test, peripheral blood was collected from the submandibular vein of the mice, and bone marrow was collected as well. The blood and bone marrow were stained with specific markers (CD33 and CD45) and then reacted with a fluorescent antibody, before the CD33+ or CD45^+-stained cells were quantified with a flow cytometer.

For a further assay, the system named is MV4-11 cells. Kind of assay: Animal test, ASID mice transplanted with MV4-11 cells. It counts as in vivo. The conditions noted are these: 4 mg/kg, intravenous, day 21. The procedure:
as §3, §4

In assay [8] the test system is H1299 cells. The conditions noted are these: 150 μM, 48 hours.
Experimental: (§6) A 24-well plate was inoculated with H1299 cells (1.5×10^5 cells) and MCF-7 cells (3.0×10^5 cells), and the cells were cultured in a 37° C. and 5% carbon dioxide environment for 24 hours in order for a confluent monolayer of cells to be formed. After that, the culture medium was removed, and the cells were washed with a phosphate buffer. […] Cell migration was observed under an automated microscope, and a quantitative analysis of cells was performed at the same time.
Assay [9] deals with MCF-7 cells. The conditions noted are these: 150 μM, 48 hours.
Experimental: as §6

T1 sequence (P23368 19-584): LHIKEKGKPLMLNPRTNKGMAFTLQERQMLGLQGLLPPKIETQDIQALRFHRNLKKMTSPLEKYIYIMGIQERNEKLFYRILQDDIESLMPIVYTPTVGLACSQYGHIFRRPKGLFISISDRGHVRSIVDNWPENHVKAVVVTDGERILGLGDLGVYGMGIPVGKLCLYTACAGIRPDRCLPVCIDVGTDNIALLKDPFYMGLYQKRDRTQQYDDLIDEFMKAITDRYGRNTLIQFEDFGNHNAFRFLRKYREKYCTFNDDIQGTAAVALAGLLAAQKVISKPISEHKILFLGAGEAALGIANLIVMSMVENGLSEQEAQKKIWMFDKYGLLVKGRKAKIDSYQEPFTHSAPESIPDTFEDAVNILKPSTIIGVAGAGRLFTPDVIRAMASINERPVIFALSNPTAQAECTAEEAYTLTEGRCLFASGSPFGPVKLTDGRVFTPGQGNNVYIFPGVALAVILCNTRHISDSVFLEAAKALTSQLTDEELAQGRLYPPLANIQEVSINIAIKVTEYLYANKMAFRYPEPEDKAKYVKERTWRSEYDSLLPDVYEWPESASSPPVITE

With `O=C(O)c1cccc(C(=O)c2ccccc2)c1` [3-benzoyl-benzoic acid], the IC50 on human ME2 came to 652 µM.
Regarding `O=C(O)c1cc2ccccc2c(Cc2c(O)c(C(=O)O)cc3ccccc23)c1O` [EA, 4,4′-methylene-bis(3-hydroxy-2-naphthoic acid)], in the assay on H1299 cells [1], the NADPH content result was “reduce” and the pyruvate content result was “reduce”. In addition, in the assay with MCF-7 cells [2], the NADPH content entry is recorded as “not reduced significantly” and the pyruvate content entry is “not reduced significantly”. For the same compound, in the assay with H1299 cells [3], the ATP content result is reported as “lower” and the ROS content entry is given as “increase”. Moreover, in the assay on H1299 cells [4], the “ATP generation (mitochondrial electron transport chain)” value is reported as “reduced”, the basal respiration rate result is given as “reduced”, the maximum respiration rate result is recorded as “reduced” and the spare respiratory capacity entry is “reduced”. Besides, in the assay on MCF-7 cells [5], the ATP generation result is “remained the same”, the basal respiration rate entry is recorded as “remained the same”, the maximum respiration rate entry was “remained the same” and the spare respiratory capacity result is “remained the same”. In addition, the cell invasion result with H1299 cells [6] is given as “inhibit”. Also, in the assay with MCF-7 cells [7], the cell invasion result is listed as “cannot inhibit”. In the assay on THP-1 cells, the “AML cells in mice (CD33+ / CD45+ stained cells in peripheral blood and bone marrow)” value is reported as “reduce”. Also, in the assay with MV4-11 cells, the “AML cells in mice (CD33+ / CD45+ stained cells in peripheral blood and bone marrow)” value is “reduce”. Also, the cell migration entry in the assay on H1299 cells [8] is given as “inhibit”. In the assay with MCF-7 cells [9], the cell migration result is “cannot inhibit”.
As to `O=C(O)c1cc2cccc(O)c2cc1O` [3,5-dihydroxy-2-naphthoic acid], at human ME2, the half-inhibitory concentration (IC50) came to 12.4 µM and the “inhibiting the activity of ME2 (in words)” value (from here on “inhibiting the activity”) is recorded as “relatively effective”.
Turning to `O=C(O)c1ccc2cc(C(=O)O)ccc2c1` [2,6-dicarboxy naphthalene], on human ME2, the concentration for half-maximal inhibition (IC50) was found to be 353 µM.
On the same count and under the same terms, with `O=C(O)c1ccccc1O` [Salicylic acid] the figure was 801 µM.
As for `O=C(O)c1cc2cc(O)ccc2cc1O` [3,7-dihydroxy-2-naphthoic acid], on human ME2, the IC50 came out at 37.6 µM.
Regarding `O=C(O)c1cc2ccccc2cc1O` [3-hydroxy-2-naphthoic acid], on human ME2, the IC50 turned out to be 105 µM and the “inhibiting the activity” value is on record as “relatively effective”.
Regarding `O=C(O)c1cc(Cc2ccc(O)c(C(=O)O)c2)ccc1O` [MDSA, 5,5′-methylenedisalicylic acid], in the assay with H1299 cells [1], the NADPH content entry was “reduce” and the pyruvate content entry is given as “reduce”. Besides, in the assay on MCF-7 cells [2], the NADPH content result was “not reduced significantly” and the pyruvate content result was “not reduced significantly”. In addition, in the assay with H1299 cells [3], the ATP content entry is listed as “lower” and the ROS content entry was “increase”. Besides, the “ATP generation (mitochondrial electron transport chain)” value in the assay on H1299 cells [4] is recorded as “lowered”. The spare respiratory capacity result with MCF-7 cells [5] is “remained the same”. Also, the cell invasion entry in the assay with H1299 cells [6] is listed as “inhibit”. In the assay with MCF-7 cells [7], the cell invasion result was “cannot inhibit”.
`O=C(O)c1cc2cc(Br)ccc2cc1O` [7-bromo-3-hydroxy-2-naphthoic acid]: the IC50 on human ME2 was 308 µM.
For `O=C(O)c1ccc2ccccc2c1O` [1-hydroxy-2-naphthoic acid], at human ME2, the concentration for half-maximal inhibition (IC50) was 74.7 µM and the “inhibiting the activity” value is on record as “relatively effective”.

The values above are taken from patent publication US20250120987A1, “METHOD FOR TREATING CANCER USING HUMAN MIT[…] ENZYME 2 INHIBITOR” (priority 2023, published 2025).
